Experimental data published in patent US9708314B2, “Heterocyclic amide compound” (NISSAN CHEMICAL INDUSTRIES, LTD., priority 2013, dated 2017).

Tests used:
Type in all cases: in vivo
Cyperus difformis = test: Test Example 3: herbicidal effect by application to foliage (Wagner pot, water depth 0.1-0.5 cm); details: Nineteenth Table, application to foliage
Method in brief: (§1)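 Scores (0–5) reflect herbicidal ratio three weeks after a foliar spray: 0 is 5% or less, 5 is 90% or more. Plants had grown 14 days in alluvial soil pots in a 25–30 °C greenhouse before treatment with water-diluted emulsion at a set g/ha.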

[1] = system: Echinochloa crus-galli var. crus-galli; test: as above; details: Nineteenth Table, application to foliage
Method in brief: as §1

Leptochloa chinensis = test: as above; details: Nineteenth Table, application to foliage
Method in brief: as §1

[2] = system: directly sowed Oryza sativa; test: Test Example 3: effect on crop by application to foliage (Wagner pot, water depth 0.1-0.5 cm); details: Nineteenth Table, application to foliage
Method in brief: as §1

Abutilon theophrasti = test: Test Example 4: herbicidal effect by application to foliage (diluvial soil, plastic box); details: for M (Abutilon theophrasti) herbicidal effect grade: foliage application, 320 g/ha
Method in brief: (§2)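 Seeds sown in sterilized diluvial soil, covered ~1.5 cm, grown 14 days in greenhouse at 25° C. to 30° C. Emulsion formulation diluted in water to set rate (g/ha) and sprayed onto stems and leaves. Effect scored visually 3 weeks later on 0–5 scale (5 = ≥90% herbicidal ratio, 0 = ≤5%).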

Alopecurus myosuroides = test: as above; details: for J (Alopecurus myosuroides) herbicidal effect grade: foliage application, 320 g/ha
Method in brief: as §2

Amaranthus retroflexus = test: as above; details: for N (Amaranthus retroflexus) herbicidal effect grade: foliage application, 320 g/ha
Method in brief: as §2

Apera spica-venti. = test: as above; details: for L (Apera spica-venti.) herbicidal effect grade: foliage application, 320 g/ha
Method in brief: as §2

Avena fatua = test: as above; details: for I (Avena fatua) herbicidal effect grade: foliage application, 320 g/ha
Method in brief: as §2

Chenopodium album = test: as above; details: for O (Chenopodium album) herbicidal effect grade: foliage application, 320 g/ha
Method in brief: as §2

Digitaria ciliaris = test: as above; details: for F (Digitaria ciliaris) herbicidal effect grade: foliage application, 320 g/ha
Method in brief: as §2

[3] = system: Echinochloa crus-galli var. crus-galli; test: as above; details: for H (Echinochloa crus-galli var. crus-galli) herbicidal effect grade: foliage application, 320 g/ha
Method in brief: as §2

Galium spurium = test: as above; details: for Q (Galium spurium) herbicidal effect grade: foliage application, 320 g/ha
Method in brief: as §2

Lolium multiflorum Lam. = test: as above; details: for K (Lolium multiflorum Lam.) herbicidal effect grade: foliage application, 320 g/ha
Method in brief: as §2

Setaria viridis = test: as above; details: for G (Setaria viridis) herbicidal effect grade: foliage application, 320 g/ha
Method in brief: as §2

Stellaria media = test: as above; details: for P (Stellaria media) herbicidal effect grade: foliage application, 320 g/ha
Method in brief: as §2

Veronica persica = test: as above; details: for R (Veronica persica) herbicidal effect grade: foliage application, 320 g/ha
Method in brief: as §2

[4] = application herbicide amount 200 g/ha
[5] = application to foliage, application herbicide amount 320 g/ha
[6] = application herbicide amount 320 g/ha

SMILES	E (herbicidal effect grade) (Cyperus difformis; [6])	H (herbicidal effect grade) [1, 6]	D (herbicidal effect grade) (Leptochloa chinensis; [6])	b (effect on crop grade) [2, 6]	M (Abutilon theophrasti) herbicidal effect grade (Abutilon theophrasti)	J (Alopecurus myosuroides) herbicidal effect grade (Alopecurus myosuroides)	N (Amaranthus retroflexus) herbicidal effect grade (Amaranthus retroflexus)	L (Apera spica-venti.) herbicidal effect grade (Apera spica-venti.)	I (Avena fatua) herbicidal effect grade (Avena fatua)	O (Chenopodium album) herbicidal effect grade (Chenopodium album)	F (Digitaria ciliaris) herbicidal effect grade (Digitaria ciliaris)	H (Echinochloa crus-galli var. crus-galli) herbicidal effect grade [3]	Q (Galium spurium) herbicidal effect grade (Galium spurium)	K (Lolium multiflorum Lam.) herbicidal effect grade (Lolium multiflorum Lam.)	G (Setaria viridis) herbicidal effect grade (Setaria viridis)	P (Stellaria media) herbicidal effect grade (Stellaria media)	R (Veronica persica) herbicidal effect grade (Veronica persica)	also measured
CC(C)c1nnc2c(C(=O)Nc3nnnn3C)ccc(C(F)(F)F)n12 [2-003]																		E (herbicidal effect grade) (Cyperus difformis; [4]): 5 (Herbicidal ratio of 90% or more (almost completely withered)); H (herbicidal effect grade) [1, 4]: 5 (Herbicidal ratio of 90% or more (almost completely withered)); D (herbicidal effect grade) (Leptochloa chinensis; [4]): 5 (Herbicidal ratio of 90% or more (almost completely withered)); b (effect on crop grade) [2, 4]: 0 (Herbicidal ratio of 5% or less (almost no effect)); M: herbicidal effect on Abutilon theophrasti (Abutilon theophrasti; [5]): 5 (Herbicidal ratio of 90% or more (almost completely withered)); J: herbicidal effect on Alopecurus myosuroides (Alopecurus myosuroides; [5]): 3 (Herbicidal ratio of 40% or more and less than 70%); N: herbicidal effect on Amaranthus retroflexus (Amaranthus retroflexus; [5]): 5 (Herbicidal ratio of 90% or more (almost completely withered)); L: herbicidal effect on Apera spica-venti. (Apera spica-venti.; [5]): 5 (Herbicidal ratio of 90% or more (almost completely withered)); I: herbicidal effect on Avena fatua (Avena fatua; [5]): 3 (Herbicidal ratio of 40% or more and less than 70%); O: herbicidal effect on Chenopodium album (Chenopodium album; [5]): 5 (Herbicidal ratio of 90% or more (almost completely withered)); F: herbicidal effect on Digitaria ciliaris (Digitaria ciliaris; [5]): 5 (Herbicidal ratio of 90% or more (almost completely withered)); H: herbicidal effect on Echinochloa crus-galli var. crus-galli [3, 5]: 5 (Herbicidal ratio of 90% or more (almost completely withered)); Q: herbicidal effect on Galium spurium (Galium spurium; [5]): 4 (Herbicidal ratio of 70% or more and less than 90%); K: herbicidal effect on Lolium multiflorum Lam. (Lolium multiflorum Lam.; [5]): 3 (Herbicidal ratio of 40% or more and less than 70%); G: herbicidal effect on Setaria viridis (Setaria viridis; [5]): 5 (Herbicidal ratio of 90% or more (almost completely withered)); P: herbicidal effect on Stellaria media (Stellaria media; [5]): 5 (Herbicidal ratio of 90% or more (almost completely withered)); R: herbicidal effect on Veronica persica (Veronica persica; [5]): 5 (Herbicidal ratio of 90% or more (almost completely withered))
Cn1nnnc1NC(=O)c1ccc(C(F)(F)F)n2c(CS(C)(=O)=O)nnc12 [2-034]	5 (Herbicidal ratio of 90% or more (almost completely withered))	5 (Herbicidal ratio of 90% or more (almost completely withered))	5 (Herbicidal ratio of 90% or more (almost completely withered))	5 (Herbicidal ratio of 90% or more (almost completely withered))	5 (Herbicidal ratio of 90% or more (almost completely withered))	5 (Herbicidal ratio of 90% or more (almost completely withered))	5 (Herbicidal ratio of 90% or more (almost completely withered))	5 (Herbicidal ratio of 90% or more (almost completely withered))	5 (Herbicidal ratio of 90% or more (almost completely withered))	5 (Herbicidal ratio of 90% or more (almost completely withered))	5 (Herbicidal ratio of 90% or more (almost completely withered))	5 (Herbicidal ratio of 90% or more (almost completely withered))	5 (Herbicidal ratio of 90% or more (almost completely withered))	5 (Herbicidal ratio of 90% or more (almost completely withered))	5 (Herbicidal ratio of 90% or more (almost completely withered))	5 (Herbicidal ratio of 90% or more (almost completely withered))	5 (Herbicidal ratio of 90% or more (almost completely withered))	
Cn1nnnc1NC(=O)c1ccc(C(F)(F)F)n2c(C[S+]([O-])CC(F)(F)F)nnc12 (stereo not shown) [2-035]	4 (Herbicidal ratio of 70% or more and less than 90%)	5 (Herbicidal ratio of 90% or more (almost completely withered))	5 (Herbicidal ratio of 90% or more (almost completely withered))	5 (Herbicidal ratio of 90% or more (almost completely withered))	5 (Herbicidal ratio of 90% or more (almost completely withered))	3 (Herbicidal ratio of 40% or more and less than 70%)	5 (Herbicidal ratio of 90% or more (almost completely withered))	4 (Herbicidal ratio of 70% or more and less than 90%)	4 (Herbicidal ratio of 70% or more and less than 90%)	5 (Herbicidal ratio of 90% or more (almost completely withered))	5 (Herbicidal ratio of 90% or more (almost completely withered))	5 (Herbicidal ratio of 90% or more (almost completely withered))	2 (Herbicidal ratio of 20% or more and less than 40%)	4 (Herbicidal ratio of 70% or more and less than 90%)	5 (Herbicidal ratio of 90% or more (almost completely withered))	5 (Herbicidal ratio of 90% or more (almost completely withered))	5 (Herbicidal ratio of 90% or more (almost completely withered))	
Cn1nnnc1NC(=O)c1ccc(C(F)(F)F)n2c(S(C)(=O)=O)nnc12 [2-037]	5 (Herbicidal ratio of 90% or more (almost completely withered))	5 (Herbicidal ratio of 90% or more (almost completely withered))	5 (Herbicidal ratio of 90% or more (almost completely withered))	5 (Herbicidal ratio of 90% or more (almost completely withered))	5 (Herbicidal ratio of 90% or more (almost completely withered))	5 (Herbicidal ratio of 90% or more (almost completely withered))	5 (Herbicidal ratio of 90% or more (almost completely withered))	5 (Herbicidal ratio of 90% or more (almost completely withered))	5 (Herbicidal ratio of 90% or more (almost completely withered))	5 (Herbicidal ratio of 90% or more (almost completely withered))	5 (Herbicidal ratio of 90% or more (almost completely withered))	5 (Herbicidal ratio of 90% or more (almost completely withered))	5 (Herbicidal ratio of 90% or more (almost completely withered))	5 (Herbicidal ratio of 90% or more (almost completely withered))	5 (Herbicidal ratio of 90% or more (almost completely withered))	5 (Herbicidal ratio of 90% or more (almost completely withered))	5 (Herbicidal ratio of 90% or more (almost completely withered))	
CCS(=O)(=O)c1nnc2c(C(=O)Nc3nnnn3C)ccc(C(F)(F)F)n12 [2-038]	5 (Herbicidal ratio of 90% or more (almost completely withered))	5 (Herbicidal ratio of 90% or more (almost completely withered))	5 (Herbicidal ratio of 90% or more (almost completely withered))	5 (Herbicidal ratio of 90% or more (almost completely withered))	5 (Herbicidal ratio of 90% or more (almost completely withered))	5 (Herbicidal ratio of 90% or more (almost completely withered))	5 (Herbicidal ratio of 90% or more (almost completely withered))	5 (Herbicidal ratio of 90% or more (almost completely withered))	5 (Herbicidal ratio of 90% or more (almost completely withered))	5 (Herbicidal ratio of 90% or more (almost completely withered))	5 (Herbicidal ratio of 90% or more (almost completely withered))	5 (Herbicidal ratio of 90% or more (almost completely withered))	5 (Herbicidal ratio of 90% or more (almost completely withered))	5 (Herbicidal ratio of 90% or more (almost completely withered))	5 (Herbicidal ratio of 90% or more (almost completely withered))	5 (Herbicidal ratio of 90% or more (almost completely withered))	5 (Herbicidal ratio of 90% or more (almost completely withered))	
